The nature of the data set: Human HepG2 cell viability assay in 384 well format. Type of data set: toxicity, cell-based. On the set-up: dose 125 nL, time 70.5 hour; cytotoxicity at 70.5 h: concentration not given beside the values. The note with it: HepG2 cells, read-out: Inhibition.
`CN(C)C(=O)[C@@H]1C[C@@H]2CCN(C3CCOCC3)C[C@@H]2O1`: the cytotoxicity at 70.5 h was 12.2%. The figure for `CC(C)Oc1ncnc2c1CCN(c1cc(C(F)(F)F)ncn1)CC2` is 4.68%; for `CC(C)Nc1ncnc2c1CCN(c1cc(C(F)(F)F)ncn1)CC2` it is 3.48%; for `CCOc1ncnc2c1CCN(c1cc(C(F)(F)F)ncn1)CC2` it is 3.85%. For `Cn1cc(CN2CCCn3cnc(COCc4ccco4)c3C2)cn1` the value was 3.06%. Take `CN(C)C(=O)[C@H]1C[C@@H]2CN(c3ncccn3)C[C@H]1O2`: the cytotoxicity at 70.5 h was -4.11%. For `Cc1noc([C@]23COC[C@H]2CN(C(=O)C2CCOCC2)C3)n1` the value was -4.92%. With `Cc1noc([C@@]23CCO[C@@H]2CCN(C(=O)c2cc(C)[nH]c2C)C3)n1`, the cytotoxicity at 70.5 h is -2.6%. On to `CCC1=N[C@@]2(CC[C@@H]3CN(C(=O)NCC(C)C)C[C@@H]32)C(=O)N1CCOC`, for which the cytotoxicity at 70.5 h is -2.9%.

With `O=C1NC(c2ccccc2)=N[C@@]12CC[C@@H]1CN(Cc3nccs3)C[C@@H]12`, the cytotoxicity at 70.5 h is -4.6%. As for `O=C1NC(c2ccccc2)=N[C@@]12CC[C@@H]1CN(Cc3cccnc3)C[C@@H]12`, the cytotoxicity at 70.5 h is -0.723%.

In the case of `Cc1noc([C@@]23CCO[C@@H]2CCN(C(=O)C2CCOCC2)C3)n1`, the cytotoxicity at 70.5 h was found to be 4.56%. For `CC(=O)N1CC[C@H]2OCC[C@@]2(C(=O)NCc2ccco2)C1` the value was 1.98%; for `CS(=O)(=O)NC[C@@H]1OC[C@H]2CN(C(=O)c3ccc[nH]3)CC[C@H]21`, 3.6%. The figure for `Cn1cc(N2CCC3(CCN(S(=O)(=O)C4CC4)C3)C2=O)cn1` (configuration not stated) is 4.38%. In the case of `O=C1CC2(CCN(S(=O)(=O)C3CC3)C2)CN1c1cncnc1` (configuration not stated), the cytotoxicity at 70.5 h was found to be 4.54%. The figure for `CN1CCN(C(=O)[C@@H]2CCO[C@@H]3CCN(c4ncccn4)C[C@@H]32)CC1` is -3.98%; for `Cc1noc([C@@]23CCO[C@@H]2CCN(C(=O)c2sccc2C)C3)n1` it is -1.6%; for `Cc1cccc(CN2C[C@@H]3CCCO[C@@H]3[C@H](NS(C)(=O)=O)C2)n1` it is -3.48%. For `Cn1cc(N2CC3(CCN(S(=O)(=O)C4CC4)C3)CC2=O)cn1` (configuration not stated) the value was -1.83%. The figure for `Cc1cccc(CN2C[C@@H]3CN(C(=O)c4ccsc4)C[C@@H]3C2=O)c1` is -5.57%; for `CO[C@H]1CCN(c2ncccn2)[C@H]1Cc1ccccc1` it is -6.47%. As to `COCCC(=O)N1CCN(C)c2ncccc2C1`, the cytotoxicity at 70.5 h was -6.73%. For `Cc1nc(N2CCOCC2)nc2c1CN(C(=O)Cc1ccccn1)CC2` the value was -8.21%; for `Cc1cc(C(=O)NCC2COCc3c(C)nnn3C2)no1` (configuration not stated), -6.83%. The figure for `Cc1nnn2c1COCC(CNC(=O)c1ccc3[nH]ccc3c1)C2` (configuration not stated) is -9.06%.

For `CNC(=O)[C@H]1C[C@@H]2CN(S(=O)(=O)c3ccccc3)C[C@@H]2N1C(C)=O`, the cytotoxicity at 70.5 h is -3.07%. As for `CNC(=O)N1C[C@H]2CC[C@@]3(N=C(c4ccccc4)NC3=O)[C@H]2C1`, the cytotoxicity at 70.5 h was -6.95%. For `NCC1Cn2nnc(-c3cccc(F)c3)c2CO1` (configuration not stated) the value was -4.77%; for `CN(C)C(=O)NC[C@H]1OC[C@@H]2CCN(Cc3ccoc3)C[C@@H]21`, 52.3%; for `CC(C)NC(=O)N1CC[C@@H]2CN(Cc3cccc(Cl)c3)S(=O)(=O)[C@@H]2CC1`, 27%.

As for `Cc1ccc(CN2CCC3(CC(C(=O)NCC4CC4)=NO3)C2)cc1C` (configuration not stated), the cytotoxicity at 70.5 h came out at 27.5%. Take `O=C(N[C@@H]1CN(Cc2cccs2)[C@@H]2CCCO[C@@H]21)C1CC1`: the cytotoxicity at 70.5 h was -10.5%. For `O=C1CO[C@@H]2CN(S(=O)(=O)c3ccccc3)C[C@H]2N1CC1CC1` the value was -13.1%; for `Cc1ccc(NCc2cncc3c2CCN(C(=O)C2CC=CC2)C3)nn1`, -1.58%.

As for `Cn1cc(CN2CCn3cnc(COCC4CC4)c3C2)cn1`, the cytotoxicity at 70.5 h came out at 14.1%. For `Cc1nc(COCc2cnc3n2CCN(C)C3C)cs1` (configuration not stated) the value was -1.73%.

In the case of `CO[C@@H]1CCN(S(=O)(=O)c2cn(C)cn2)[C@H]1Cc1cnn(C)c1`, the cytotoxicity at 70.5 h was -0.546%. The figure for `Cc1noc(C)c1CN1CC[C@@H]2O[C@H](COCC3CC3)CC[C@@H]21` is -4.64%; for `CCOC[C@H]1CC[C@H]2[C@H](CCN2Cc2c(C)noc2C)O1` it is -3.26%. For `Cc1ccc(CN2CCCn3cnc(COCC4CC4)c3C2)o1` the value was -1.19%; for `CO[C@H]1CCN(S(=O)(=O)c2cn(C)cn2)[C@H]1Cc1ccccc1`, 0.174%. For the compound `Cc1noc(C)c1CN1CC[C@@H]2O[C@H](COCC(C)C)CC[C@@H]21`, the cytotoxicity at 70.5 h is -3.29%. For `O=C(c1cnccn1)N1CCN2C[C@H](Oc3cccc(F)c3)C[C@H]2C1` the value was -2.2%; for `CCO[C@H]1CCN(S(=O)(=O)c2cn(C)cn2)[C@H]1Cc1ccccc1`, -1.16%. The figure for `CC(C)NC(=O)[C@@H]1CCO[C@@H]2CCN(c3ncccn3)C[C@@H]21` is 0.956%; for `Cc1nnc(N2CC[C@@H](OCC3CC3)[C@@H](Cc3ccccc3)C2)s1` it is -7.86%. In the case of `CC(C)Oc1ncnc2c1CCN(Cc1ccoc1)CC2`, the cytotoxicity at 70.5 h was -0.464%. Turning to `Cc1cnc(N2C[C@@H]3CN(Cc4ccco4)CCC[C@]3(C(=O)O)C2)nc1`, the cytotoxicity at 70.5 h is -5.9%. The figure for `O=C([C@H]1CN(Cc2ccoc2)C[C@H]2OCC[C@@H]12)N1CCCCO1` is -4.73%.

With `O=S(=O)(Cc1ccccc1)N1CCCn2cnc(CN3CCCC3)c2C1`, the cytotoxicity at 70.5 h was 0.898%. For `O=C(N[C@@H]1CN(c2ncccn2)C[C@@H]2CCCO[C@@H]21)c1cnccn1` the value was 2.24%; for `Cc1noc(C)c1CN1CC[C@@H]2O[C@@H](COCC(C)C)CC[C@@H]21`, 3.11%; for `COc1ccc(CN2C[C@@H]3CCCO[C@@H]3[C@H](NS(C)(=O)=O)C2)cc1`, -9.16%. For `Cn1cccc1C(=O)N1CCCC2(CCN(CCN3CCCC3)C2=O)C1` (configuration not stated) the value was -2.83%; for `CNC(=O)[C@H]1C[C@@H]2CN(S(=O)(=O)c3ccccc3)C[C@@H]2N1C`, -8.21%; for `CS(=O)(=O)N1CC[C@H]2[C@H](C[C@@H](Cn3cncn3)N2CC2CC2)C1`, -1.14%.

Regarding `O=C(NC1CC1)[C@H]1CC[C@@H]2[C@@H](CCN2c2ncc(F)cn2)O1`, the cytotoxicity at 70.5 h is -11.8%. `NC(=O)N1CCC2(CCN(Cc3cccc(F)c3)CC2)CC1`: the cytotoxicity at 70.5 h is -7.24%.

As to `O=C(NC1CC1)[C@@H]1CCO[C@@H]2CCN(C3CCOCC3)C[C@H]21`, the cytotoxicity at 70.5 h is -4.77%. For `Cn1cccc1C(=O)N1CCC2(CC1)CN(c1ccccn1)CCO2` the value was -5.53%; for `Cn1cc(CN2CCOC3(CCCN(C(=O)c4ccco4)C3)C2)cn1` (configuration not stated), -6.59%; for `O=C(NC1CC1)[C@@H]1CCO[C@@H]2CCN(C3CCOCC3)C[C@@H]21`, -8.31%. The figure for `CC(C)CN1C[C@H]2CCN(c3ncccn3)CC[C@H]2S1(=O)=O` is -12.5%. For `O=C(NCC1CC1)[C@@H]1CCO[C@@H]2CCN(Cc3ccco3)C[C@H]21` the value was 15.7%; for `Cc1ccc2c(n1)N(C)CCN(C(=O)C1CC1)C2`, -8.52%. In the case of `CC(=O)NCC(=O)N1CC[C@H](OCC2CC2)[C@@H]1Cc1cccnc1`, the cytotoxicity at 70.5 h was -8.28%. Consider `CS(=O)(=O)NC[C@H]1OC[C@@H]2CCN(Cc3ccc(F)cc3)C[C@@H]21`, for which the cytotoxicity at 70.5 h worked out at 16.9%. The figure for `O=C([C@H]1COC[C@H]2CN(C3CCCC3)C[C@H]21)N1CCCCO1` is -12.7%. The figure for `O=C([C@@H]1COC[C@H]2CN(C3CCOCC3)C[C@H]21)N1CCCCO1` is 18.7%; for `Cc1cncc(C(=O)N2CCO[C@H]3[C@H](OCCN(C)C)CC[C@@H]32)c1` it is -12.9%. As for `COCCN1C[C@@H](C)[C@@]2(COCCN(C(=O)c3cccc(C)n3)C2)C1`, the cytotoxicity at 70.5 h is 0.709%. As to `O=C(c1ccc(F)cc1)N1CCN2C[C@H](Oc3cccnc3)C[C@H]2C1`, the cytotoxicity at 70.5 h was found to be 0.416%. The figure for `COCCN1C[C@@H](C)[C@@]2(COCCN(C(=O)c3ccncc3)C2)C1` is -3.32%; for `COCCN1C[C@@H](C)[C@@]2(COCCN(C(=O)c3ccccn3)C2)C1` it is -4.02%. The figure for `Cn1cnc2c1C(COCc1ccccc1)N(Cc1ccccn1)CC2` (configuration not stated) is -0.00457%; for `O=C(Cc1cccnc1)N1CCC2(CC1)CCN(C1CCOCC1)C2` it is -3.79%. For `O=C1N(c2cncnc2)CCC12CCCN(Cc1ccccn1)C2` (configuration not stated) the value was -9.94%. With `CN(C)C(=O)COCc1cncc2c1CCN(Cc1cnn(C)c1)C2`, the cytotoxicity at 70.5 h was -8.65%. The figure for `CN1CCN(Cc2cccnc2)C2(CCN(c3ncc(F)cn3)C2)C1=O` (configuration not stated) is -6.18%; for `Cn1cc(CN2CCC3(C2)CN(Cc2ccsc2)C3)cn1` it is -6.34%. The figure for `CC(=O)NCC(=O)N1CCn2cc(CN3CCN(C)CC3)nc2C1` is -11.5%.

`CN1CCc2onc(CNc3ncccn3)c2C1`: the cytotoxicity at 70.5 h is -25.4%. The figure for `c1cnc(N2CCOCC3(CCCN(CC4CC4)C3)C2)cn1` (configuration not stated) is -5.91%. For `CC(C)Nc1nc2c(cc1C(=O)NCC1CC1)CCNCC2` the value was -10%; for `COCCN1CCc2cc(C(=O)NCC3CC3)c(NC(C)C)nc2CC1`, 24.8%. For `CN(C)[C@@H]1CCN(S(=O)(=O)c2cn(C)cn2)[C@H]1Cc1cccnc1` the value was -2.89%.

The record behind these values is ChEMBL document CHEMBL3507680, “University of Dundee, Gates Library screen for HepG2 cell viability”.
